Patent US20170189376A1, “BUTYROYLOXYMETHYL DIETHYL PHOSPHATE COMPOUNDS AND USES THEREOF” (MOR RESEARCH APPLICATIONS LTD., priority 2016, published 2017)

Tests used:
[1] = system: MyLa cells; assay: Alkaline comet assay, MyLa cells; assay type: cell-based, human; settings: 96 h after treatment, relative to 24 h
Procedure: (§1) Comet assay using the Trevigen Comet assay kit (Trevigen Inc., Gaithersburg, Md., USA) was done according to the manufacturer's protocol. MyLa or Hut78 cells were treated with drugs, washed, incubated for interval time, washed in PBS, counted and suspended in PBS. 1 ×10^5 cells/ml were incubated with pre-heated low melting agarose for 20 min in 37° C., loaded on a comet-slide and kept in the dark for 30 min at 4° C., in cold lysis solution for another 20 min, and finally for 20 min with unwinding solution in RT. The slides were run with cold fresh alkaline electrophoresis buffer in the COMET-20 electrophoresis system (Scie-Plas, Harvard apparatus, UK) for 20 min in 21 volts, 4° C. Slides were stirred gently and washed twice in dH20 bath for 5 min and in 70% ethanol for 5 min. […] The cells were scored under fluorescence microscope (Nikon eclipse 55i, Tokyo, Japan) at a magnification ×10. Cell scores were analyzed using the software “Comet Assay IV” (perceptive instruments, UK). […] 24h after treating the cells the mean tail moment reaches its maximal level, therefore the percent of repaired damage was calculated as follows: (mean tail moment at 24h)−(mean tail moment at indicated time)/mean tail moment at 24 h. At least a total of 100 cells were measured per time-point. […]

[2] = system: Hut78 cells; assay: Alkaline comet assay, Hut78 cells; assay type: cell-based, homo sapiens; settings: Hut78, 72 h after treatment, relative to 24 h
Procedure: as §1

[3] = system: p-KAP1, γH2AX in MyLa cells; assay: Western blot of p-KAP1 and γH2AX, MyLa cells; assay type: cell-based, human; settings: 1 mM AN-7 2 h, 1 μM Dox 1 h, or AN-7 1 h followed with Dox 1 h
Procedure: Cell fraction—3×10^6cells were suspended in 100 μl hypotonic buffer (HEPES 10 mM, KCl 5 mM, MgCl2 1.5 mM, DTT 1 mM, NP-40 1%), incubated for 15 min in ice, centrifuged and the supernatant fraction was subjected to western blot of pKAP1 and actin. The sediment was washed once with hypotonic buffer followed by suspension in 100 μl of hypertonic buffer (HEPES 10 mM, NaCl 500 mM, MgCl2 1.5 mM, DTT 1 mM, NP-40 1%), incubated for 15 min in ice, centrifuged, supernatant was removed and the sediment was boiled, vortexed for 10 min at 95° C. with sample buffer ×3 for 3 times and subjected to western blot of γH2AX.
(§2) Whole cells extract—Cells were suspended in lysis buffer (Tris-HCl 50 mM, NaCl 150 mM, NP-40 0.5%), incubated for lh on ice, centrifuged and the supernatant was collected. Protease and Phosphatase inhibitors were added to all buffers at a 1:100 dilutions. […] Bands were visualized by Odyssey Infrared Imaging System and the bands intense were normalized to actin.
Next, cells were fractionated and fraction lysate were subjected to western blot of phosphorylated KAP1 (p-KAP1), γH2AX and actin.

[4] = system: γH2AX foci in Hut78 cells; assay: γH2AX nuclear foci immunofluorescence, Hut78 cells; assay type: cell-based, homo sapiens; settings: Hut78, 24 h-72 h after treatment, relative to 3 h
Procedure: MyLa or Hut78 cells were treated with drugs, washed, incubated for interval time, and then 2×10^5cells/m1 were centrifuged with cyto-slides (CytoSlide, Shandon, Thermo, Ma, USA) in CYTOSPIN 4 (Shandon, Thermo scientific, West Palm Beach, USA) for 5 min 1000 rpm. Slides were washed with cold PBS on ice, pre-extracted with cold PBS-NP40-0.2% for 10 min, washed 3 times with cold PBS, fixed with 4% Paraformaldehyde for 10 min at RT, and washed 3 times with PBS. Slides were incubated with anti γ-H2AX, Bethyl A300-081A 1:1000, for 1.5 h in RT, washed twice in PBS-T (0.05% Tween in PBS) and once with PBS, incubated with Donkey anti rabbit IgG Alexa Fluor A-21206 1:700, for 30 min at RT, washed 3 times with PBS, dried gently, covered with 1 drop of Fluorescent mounting medium with DAPI (GBI-labs, WA, USA) and on top with cover glass. Slides were visualized in a light microscope (Olympus BX52, Tokyo, Japan). Foci analysis was performed using ImageJ software and PZfociEZ plugin. % of cells with >5 foci/cell was considered as damaged cells. % of repaired damage was calculated as follows: (% of cells with >5 foci/cell at 3 h)−(% of cells with >5 foci/cell at indicated time)/(% of cells with >5 foci/cell at 3 h). At least a total of 150 cells were measured per time-point.

[5] = system: NBS1, Rad51, Mre11, DNA-PK, Ku70 in MyLa cells; assay: Western blot of DSB repair proteins, MyLa cells; assay type: cell-based, human; settings: 24 and 48 h post treatment
Procedure: as §2
(§3) To address whether AN-7 interfere in DSBs repair by regulating the expression of DSBs repair proteins, Immunoblot was applied for those proteins. MyLa and Hut78 cells were treated as previously described and subjected to western blot of DSBs repair proteins.

[6] = system: NBS1, Rad51, Mre11, DNA-PK, Ku70 in Hut78 cells; assay: Western blot of DSB repair proteins, Hut78 cells; assay type: cell-based, homo sapiens; settings: Hut78, 18 and 24 h post treatment
Procedure: as §2, §3

[7] = system: MyLa cells; assay: MTT-based viability assay, MyLa cells; settings: Homo sapiens, 72 h
Procedure: (§4) MyLa cells (10^4), Hut78 cells (5×10^3), SPBL and NPBL (10^5) were seeded in triplicate in 96-well plates. The PBL were activated with PHA 40 μg/10^6 cell for 24 h before the experiment. […] The cells were then placed in a humidified incubator for 72 h. […] The MTT reagent was added to a final concentration of 0.5 mg/mL, and the cells were incubated for an additional 4 h. Thereafter, 0.1N HCl in isopropanol was added, and cell viability was determined using an ELISA reader (PowerWaveX, BioTek, Winooski, Vt., USA) at a 570 nm wavelength with background subtraction at 630-690 nM.
(§5) Viability and apoptosis curves were based on the averages of at least 3 independent experiments. The standard error (SE) was calculated for each group as follows: SE=standard deviation/√n, where n is number of values in the group. […] Significant differences in selectivity among groups were analyzed by comparing the IC50 values using two-tailed unpaired t-test using Excel or by comparing the differential effects for all the dose response titrations using ANOVA with repeated measures.

[8] = system: Hut78 cells; assay: MTT-based viability assay, Hut78 cells; settings: Homo sapiens, HuT78, 72 h, read-out: IC50 single treatment Dox
Procedure: as §4, §5

[9] = system: Sezary syndrome Peripheral blood lymphocytes SPBL; assay: MTT-based viability assay, Sezary PBL (SPBL); settings: Homo sapiens, Lymphocyte, 72 h, read-out: IC50 single treatment Dox
Procedure: (§6) Peripheral blood was diluted 1:3 in sterile phosphate-buffered saline (PBS). Lymphoprep was added in the same blood volume with a Pasteur pipette, and the sample was centrifuged. PBL were collected from the white median interphase, rinsed twice with PBS, and suspended in RPMI medium with 10 mM HEPES to 2×10^6 cells/mL.
as §4, §5
(§7) NPBL were treated at same molar ratio as SPBL.

[10] = system: NPBL; assay: MTT-based viability assay, normal PBL (NPBL)
Procedure: as §6, §4, §5, §7

[11] = system: MyLa cells; assay: cells; assay type: cell-based, human; settings: Homo sapiens
[12] = system: caspase 3, PARP, P21 and Bax in MF/SS cell lines; assay: Western blot of pro-apoptotic proteins in MF/SS cell lines; assay type: cell-based, human; settings: MyLa and Hut78, SAHA 10 μM or AN-7 300 μM
Text: However, there was a stronger signal in response to SAHA.

[13] = system: HDAC1; assay: Western blot of HDAC1 protein expression in MF/SS cell lines; assay type: cell-based, human; settings: MyLa and Hut78, SAHA 10 μM or AN-7 300 μM
[14] = system: Acetylated H3; assay: Western blot of acetylated H3 in nuclear lysate of MF/SS cell lines; settings: MyLa and Hut78, SAHA 10 μM or AN-7 300 μM
Procedure: Cells (5×10^6) were suspended in 300 μL of cytoplasmic buffer (HEPES 10 mM, KCl 10 mM, EDTA 1 mM, EGTA 1 mM, DTT 1 mM). After 20 min of incubation on ice, the mixture was passed 5 times through a 25-G syringe and then centrifuged briefly to obtain the cytoplasmic supernatant.
The nuclear pellet was suspended in 40-60 μL of nuclear buffer (cytoplasmic buffer+10% glycerol), incubated with shaking at 4° C. for 15 min, and centrifuged. The supernatant was collected as a nuclear fraction.
Cell extracts were separated by SDS-polyacrylamide gel electrophoresis (SDS-PAGE), transferred to a nitrocellulose membrane, and subjected to immunoblot with primary and secondary antibodies, as listed in table 1.

[15] = system: MyLa cells; assay: FACS analysis with annexin V and PI staining (apoptosis), MyLa cells; settings: SAHA 10 μM or AN-7 300 μM
Procedure: (§8) The cells (2.5×10^6 cells/mL) were washed in PBS and binding buffer and were resuspended in binding buffer, and of fluorescein isothiocyanate-conjugated annexin V (5 μL) was added to a 100 μL cell suspension for 10-15 min. Incubation was performed at room temperature under light-protected conditions. The cells were then washed in binding buffer and were resuspended in the binding buffer and propidium iodide (PI) (5 μL) was added. The samples were analyzed by flow cytometry (FACS Calibur 4.1.6, Becton Dickinson): fluorescein-labeled annexin V at a 530 nm wavelength, and PI at a 585 nm wavelength. The percentage of cells was calculated by their distribution in a fluorescence dot plot generated with FCS Express 4 software (De Novo Software, Los Angeles, Calif., USA). Early (annexin V-positive) and late (annexin V+PI-positive) apoptotic cells were summed to yield the total number of apoptotic cells.

[16] = system: Hut78 cells; assay: FACS analysis with annexin V and PI staining (apoptosis), Hut78 cells; settings: Hut78; SAHA 10 μM or AN-7 300 μM
Procedure: as §8

SMILES	damage repair (DNA breaks, mean tail moment) [1]	repair of DNA breaks (mean tail moment) [2]	induction and clearance of p-KAP1 [3]	induction and clearance of γH2AX [3]	percentage of repaired damage (γH2AX foci) [4] [%]	expression of NBS1, Mre11, Rad51 and DNA-PK [5]	expression of NBS1 and DNA-PK [6]	IC50 ([7]; read-out: IC50 single treatment Dox) [µM]	IC50 [8] [µM]	IC50 [9] [µM]	IC50 ([10]; Homo sapiens, 72 h, read-out: IC50 single treatment Dox) [µM]	IC50 ([11]; 24 h, read-out: IC50 Long exposure) [µM]	IC50 ([11]; read-out: IC50 Short exposure) [µM]	expression of pro-apoptotic proteins (western blot) [12]	HDAC1 expression level [13]	IC50 ([7]; read-out: IC50 single treatment (HDACI)) [µM]	NPBL survival at high doses ([10]; high doses lethal to Hut78 and MyLa cells)	expression of acetylated H3 [14]	apoptosis [15]	apoptosis [16]
COc1cccc2c1C(=O)c1c(O)c3c(c(O)c1C2=O)C[C@@](O)(C(=O)CO)C[C@@H]3O[C@H]1C[C@H](N)[C@H](O)[C@H](C)O1 [Dox, doxorubicin, reference compound]	about 72%	about 50%	detected at 1-3 hours and declined after 24 hours	clearance of γH2AX observed at 24 h	77.9	did not affect the expression of DSB repair proteins	did not affect the expression of DSB repair proteins	0.019 ± 0.001	0.027 ± 0.0026	0.0682 ± 0.0108	0.399 ± 0.0243									
O=C(CCCCCCC(=O)Nc1ccccc1)NO [SAHA, Suberoylanilide hydroxamic acid, reference compound]												2.3 ± 0.08	33 ± 3.7	cleavage of caspase 3 and poly ADP-ribose polymerase (PARP) and the production of P21 and Bax	downregulated	2.2 ± 0.1	lethal to all cells	induced	about 60%	about 60%
